Values joined by “and” are separate entries in the source; they are usually repeats but may differ in a detail not shown here. Equal values may be shown once.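 48-hour exposure; five concentrations; linearly interpolated endpoints. Here, GI50 denotes the concentration required for 50% inhibition of growth. TGI: concentration producing complete growth inhibition.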
Test system: MDA-MB-468 breast
Assay: inhibition of tumour cell growth, NCI panel, 48 h

Compound	GI50	TGI
COc1ccccc1NC(=O)N/C(N)=N/c1nc2ccccc2s1	0.299 µM	> 100 µM
C[C@]1(O)CC(=O)[C@]2(O)C3=C(C=C[C@]2(O)C1)C(=O)c1c(O)cccc1C3=O	1.7 µM	3.87 µM
CC(C)(C)c1ccc(NC(=O)c2cc(=O)c3ccccc3[nH]2)c(C(C)(C)C)c1O	7.87 µM	21.9 µM
CN1CCN(c2ccc(NC3=C(Cl)C(=O)c4ncccc4C3=O)cc2C(F)(F)F)CC1	0.746 µM	2.69 µM
CC(=O)O[C@H]1CC[C@]2(C)[C@H]3C(=O)C=C4[C@@H]5C[C@](C)(C(=O)N6CCCNCC6)CC[C@]5(C)CC[C@@]4(C)[C@]3(C)CC[C@H]2C1(C)C	1.7 µM	3.56 µM
CC(=O)OC1CC(C)c2c1ncnc2N1CCN(C(=O)OC(C)(C)C)CC1 (configuration not stated)	33.9 µM	> 100 µM
CCCCCCCCOC(=O)c1cc(O)c(O)c(O)c1	3.49 µM	16.7 µM
CCN(CCc1ccc(F)cc1)c1ccc(CO)c(Cl)c1	0.217 µM	0.724 µM
COc1cc(C)c(N(C)C(=O)CN(C)C)cc1Nc1nc(Nc2cccc(F)c2C(N)=O)c2cc[nH]c2n1	14.5 µM	> 25 µM
COc1ccc(-n2nc(C)c3c(Nc4ccc(NC(=O)Nc5cc(C(F)(F)F)ccc5F)cc4)ncnc32)cc1	2.48 µM	6.14 µM
Cc1cc2cc(Oc3ccnc(Nc4cccc(CS(=O)(=O)NCCN(C)C)c4)n3)ccc2[nH]1	6.49 µM	21.3 µM
CCCCCCCCCCCCCCCC[N+](C)(C)C	0.118 µM and 0.328 µM	0.361 µM and 1.93 µM
COc1ccc(/C=C2/CCOC2=O)cc1	> 100 µM	> 100 µM
CCCN(CCC)c1ccc(C=O)c(OC)c1	6.22 µM	63 µM
CCOc1ccc2c(-c3ccnc(Nc4cccc(C(F)(F)F)c4)n3)cnn2n1	1.14 µM	> 25 µM
CCN(CC)CCNc1ccc(CO)c2sc3ccccc3c(=O)c12	1.25 µM	3.03 µM

Compound	GI50	TGI
COc1ccc(CNCCCN2C(=O)c3ccc4c5c(ccc(c35)C2=O)C(=O)N(CCCNCCCCNCCCN)C4=O)c(OC)c1OC	0.155 µM	0.334 µM
Cc1cc(C)c(S(=O)(=O)Oc2ccccc2[N+](=O)[O-])c(C)c1	1.48 µM	5.62 µM
CCc1nc2cc(/C=C/C(=O)NO)c(F)cc2c(=O)n1CCc1ccccc1	0.474 µM	2.92 µM
O=c1cc(-c2ccccc2)oc2cc(OCc3cn(Cc4ccc(F)cc4)nn3)cc(O)c12	20 µM	> 100 µM
COc1cc(/C=C\c2cc(/C=C\c3ccc(O)c(OC)c3)n(C(=O)Nc3ccc(C(F)(F)F)cc3)n2)ccc1O	2.3 µM	6.25 µM
CN([N-]C(=O)CC(=O)[N-]N(C)C(=S)c1ccccc1)C(=S)c1ccccc1.[Cu+2]	< 0.01 µM	0.0386 µM
CCCCn1c(=O)c(/C=C/C(=O)/C=C/c2ccc(O)c(OC)c2)cc2ccc(Cl)cc21	1.46 µM	4.37 µM
COc1cccc2c1[C@H](OC)[C@]13O[C@@]1(C2=O)[C@H](O)[C@H](C)[C@@](O)(C(=O)[C@@H]1O[C@H]1C)[C@@H]3O	0.204 µM	0.48 µM
COc1cccc2c1C(=O)c1c(O)c3c(c(O)c1C2=O)C[C@@](O)(C(=O)COC(=O)c1cccnc1)C[C@@H]3OC1CC(N)C(O)C(C)O1 (some centres not stated)	0.136 µM	0.465 µM
CCCCCn1ncc(-c2c(O)c(O)cc3c(O)c(-c4c(C)cc5c(-c6cnn(CCCCC)n6)c(O)c(O)cc5c4O)c(C)cc23)n1	0.102 µM	3.76 µM
COc1ccc(OC)c(-c2cn3nc(-c4c[nH]c5ccc(Br)cc45)sc3n2)c1	2.94 µM	8.41 µM
COc1ccc(S(=O)(=O)N2CCCCC2)cc1NC(=O)c1[nH]c(C)c2c1CCCCC2=O	0.468 µM	3.9 µM
CC(C)NCCCNC1=C(Cl)C(=O)c2ccccc2C1=O	2.85 µM	8.78 µM
COc1ncnc2c1ncn2C/C(Br)=C(\Br)CCl	1.56 µM	3.29 µM
Cc1ccc2nc(NC(=O)CSC(=S)N3CCN(Cc4ccccc4)CC3)sc2c1	> 100 µM	> 100 µM
